Results reported in ChEMBL document CHEMBL4130584, “Sesqui- and Diterpenoids from the Radix of Curcuma aromatica” (2017).

Tests used:
Type in all cases: functional
[1] = tested on: PC-12; assay: Antioxidant activity against H2O2-induced cell damage in rat PC12 cells assessed as cell viability at 1 uM after 24 hrs by MTT assay (reference value: 64.34 +/- 1.02 %); settings: for viability at 1 µM: PC-12, 24 h, read-out: Activity
[2] = tested on: PC-12; assay: Antioxidant activity against H2O2-induced cell damage in rat PC12 cells assessed as cell viability at 5 uM after 24 hrs by MTT assay (reference value: 64.34 +/- 1.02 %); settings: PC-12, 24 h, read-out: Activity
[3] = tested on: PC-12; assay: Antioxidant activity against H2O2-induced cell damage in rat PC12 cells assessed as cell viability at 10 uM after 24 hrs by MTT assay (reference value: 64.34 +/- 1.02 %); settings: PC-12, 24 h, read-out: Activity

Row | Compound | Activity [1] [%] | viability at 5 µM [2] [%] | viability at 1 µM [1] [%] | viability at 10 µM [3] [%]
1 | VITAMIN E | 80.9 | – | – | –
2 | CC1=CC(=O)C(=C(C)C)C[C@H]2[C@H]1CC[C@]2(C)O [PROCURCUMENOL] | – | 70 | 66.4 | 69.6
3 | C=C[C@]1(C)C[C@@H]2OC(=O)C(C)=C2C[C@H]1C(=C)C [ISOGERMAFURENOLIDE] | – | 63.7 | 62.5 | 67.2
4 | CC(=O)CCc1c(C)cc(O)c2c1C(=O)OC2(C)C | – | 68.7 | 65.4 | 70.2
5 | CC1=C2C[C@@H]3[C@H](CC[C@@]3(C)O)[C@](C)(O)C[C@H]2OC1=O | – | 72 | 67.5 | 76.4
6 | C=C1CC[C@H]2C(C)(C)CCC[C@]2(C)[C@H]1CCC1=CC(=O)OC1 | – | 70.2 | 67.1 | 72.1
7 | CC1=C2C[C@@]34O[C@]2(OC1=O)[C@H](O)[C@](C)(O)[C@@H]3CC[C@H]4C | – | 77.7 | 73.7 | 79.8
8 | CC1=C2CC[C@](C)(O)[C@H]2CC2=C(C)C(=O)O[C@@]2(O)C1 | – | 76.8 | 82.7 | 74.3
9 | CC(C)=C1C[C@H]2[C@@H](CC[C@]2(C)O)[C@](C)(O)CC1=O [ZEDOARONDIOL] | – | 70.3 | 81.9 | 72.6
10 | CC1=C2C[C@@H]3[C@](C)(CCC[C@@]3(C)O)C[C@]2(O)OC1=O | – | 80.9 | 81.2 | 90.1
11 | CC(C)=C1C[C@]2(O)[C@@H](CC[C@@H]2C)[C@@](C)(O)CC1=O | – | 64 | 66.3 | 65.2
12 | CC1=C2CC[C@](C)(O)[C@H]2CC2=C(C)C(=O)OC2=C1 | – | 84 | 82.9 | 88.7
13 | CC1=C2C[C@H]3[C@H](CC[C@]3(C)O)[C@@](C)(O)C[C@@H]2OC1=O [ZEDOALACTONE C] | – | 77.3 | 73.1 | 81
14 | CCO[C@]12C/C(C)=C/CC[C@@H](C)C(=O)CC1=C(C)C(=O)O2 | – | 80.9 | 77.7 | 85.2
15 | CC1=CC(=O)O[C@@]2(CC(=O)C(C)C)[C@@H](C)CC[C@@H]12 | – | 83.5 | 73.4 | 89
16 | CC1=CC(=O)[C@]23C[C@]24[C@@]1(O)CC[C@]4(C)OC3(C)C | – | 74.8 | 72.7 | 77.2
17 | CC(C)C1=CC[C@@](C)(O)[C@@H]2CC[C@@](C)(O)[C@@H]2C1 | – | 77.9 | 69.5 | 77.7
18 | CC1(C)CCC[C@]2(C)[C@@H]1CC[C@](O)(CO)[C@H]2C/C=C1\CCOC1=O | – | 72.2 | 67.6 | 74.1
19 | Cc1cc(=O)c(C(C)C)cc2c1CC[C@]2(C)O | – | 76.7 | 77.7 | 75.2
20 | CC1=C2C[C@]34O[C@](C)(C[C@H]2OC1=O)[C@H]3CC[C@@H]4C | – | 71.6 | 67.4 | 79.3
21 | Cc1cc2oc(=O)c(C)c-2cc2c1CC[C@H]2C | – | 70.6 | 68.1 | 72.5
22 | CC1=CC(=O)C(=C(C)C)C[C@@]2(O)[C@H](C)CC[C@@H]12 | – | 68.8 | 69.5 | 76.2
23 | C[C@]12CCC[C@](C)(C(=O)O)[C@@H]1CC[C@@]13CC[C@@H]([C@H](O)[C@H]21)[C@]1(C)O[C@H]31 | – | 70.8 | 68.2 | 72.3
24 | C=C1CC[C@H]2C(C)(C)[C@@H](O)CC[C@]2(C)[C@H]1C/C=C1\CCOC1=O | – | 67.1 | 66.9 | 67.4
25 | CC1=C2CC(=O)[C@@H](C)CC/C=C(\C)C[C@@]2(O)OC1=O | – | 76.1 | 74.5 | 78.4
26 | C=C(C)C(=O)C[C@@]12OC(=O)C=C(C)[C@@H]1CC[C@@H]2C | – | 72.4 | 69.3 | 75.9
27 | CC1=C2CC(=O)[C@@H](C)CC/C=C(\C)C[C@H]2OC1=O | – | 77.4 | 65.4 | 80.2
28 | CC1=C2C[C@H]3[C@H](CC[C@]3(C)O)[C@@](C)(O)C[C@]2(O)OC1=O [ZEDOAROLIDE B] | – | 77 | 76.1 | 80.7
